Data from patent US10265287B2, “Methods of reducing triglycerides and LDL-C” (Amarin Pharmaceuticals Ireland Limited, priority 2009, dated 2019).

Experiment: Lipid peroxide (LOOH) formation in model membranes, CHOD-iodide colorimetric assay
Assay type: biochemical
Details: cholesterol-enriched membranes
Method: An experiment was conducted to test EPA, DHA, EPA+DHA with and without with atorvastatin in model membranes enriched with PUFAs and cholesterol at levels that reproduce disease or high CV-risk conditions (i.e. hypercholesterimia). […] EPA and DHA were tested individually at a fixed concentration of 10.0 uM or in combination at 5.65 μM and 4.35 μM (EPA and DHA, respectively), which is a mole ratio of 1.3:1. Separate and combined effects of these agents on lipid peroxide (LOOH) formation were examined at cholesterol-to-phospholipid (C/P) mole ratios of 0.5:1, 1.0:1 and 1.5:1. Levels of lipid hydroperoxides were also measured for EPA, DPH and EPA/DPH in cholesterol-enriched membrane prepared in the absence and presence of atorvastatin. […] To ensure spectrophotometric readings within the optimum absorbance range, sample volumes taken for measurement of lipid peroxide formation were adjusted for length of peroxidation and range between 100 and 10 μl. […] Absorbances were measured against a CHOD blank at 365 nm using a Beckman DU-640 spectrophotometer. The CHOD colorimetric assay is based on the oxidation of iodide (I^-) by lipid hydroperoxides (LOOH) and proceeds according to the following reaction scheme: […]3^- The quantity of triiodide anion (I3^-) liberated in this reaction is directly proportional to the amount of lipid hydroperoxides present in the membrane sample. […]

With `CCC=CCC=CCC=CCC=CCC=CCCCC(=O)O` [EPA, eicosa-5,8,11,14,17-pentaenoic acid] the “antioxidant benefit compared with DHA” value (EPA and DHA each tested at 10.0 uM) was “superior to that observed with DHA” and the “antioxidant benefit (lipid peroxide (LOOH) formation)” value (autoxidation at 37° C., EPA tested at 10.0 uM) was “potent antioxidant benefit”.
